Experiments:
Assay type in all cases: in vivo
[1] = system: chickweed (Stellaria media); assay: Test B postemergence plant response
Outline: (§1)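 Plants at the 1- to 4-leaf stage (2 to 18 cm tall), grown in pots of peat moss/vermiculite medium with wetting agent and starter nutrients, received postemergence applications of test chemicals. After 13 to 15 days in a greenhouse, injury was rated visually against untreated controls on a 0 (no effect) to 100 (complete control) scale.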

[2] = system: canarygrass (Phalaris minor); assay: Test B postemergence plant response
Outline: as §1

[3] = system: windgrass (Apera spica-venti); assay: Test B postemergence plant response
Outline: as §1

[4] = system: winter barley (Hordeum vulgare); assay: Test B postemergence plant response
Outline: as §1

[5] = system: goosegrass (Eleusine indica); assay: Test B pre-/postemergence plant response; conditions: Preemergence, 62 g ai/ha; scale 0 to 100, 0 no effect, 100 complete control
[6] = system: umbrella sedge (Cyperus difformis); assay: Test B flooded paddy test; conditions: for Plant response rating, Flood, Sedge, Umbrella: 250 g ai/ha, flooded paddy test, visual rating on 0 to 100 scale (0 no effect, 100 complete control) after 13 to 15 days; for Plant response rating, Sedge, Umbrella: Flood (flooded paddy test), 13 to 15 days
Outline: (§2)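 Plants were grown to the 2-leaf stage, then pots were flooded to 3 cm above the soil and compounds were applied directly into the paddy water. That depth was held throughout. After 13 to 15 days in a greenhouse, injury was visually rated against controls on a 0–100 scale.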

[7] = system: rice (Oryza sativa); assay: Test B flooded paddy test; conditions: for Plant response rating, Flood, Rice: 250 g ai/ha, flooded paddy test, visual rating on 0 to 100 scale (0 no effect, 100 complete control) after 13 to 15 days; for Plant response rating, Rice: Flood (flooded paddy test), 13 to 15 days
Outline: as §2

[8] = system: ducksalad (Heteranthera limosa); assay: Test B flooded paddy test; conditions: for Plant response rating, Flood, Ducksalad: 250 g ai/ha, flooded paddy test, visual rating on 0 to 100 scale (0 no effect, 100 complete control) after 13 to 15 days; for Plant response rating, Ducksalad: Flood (flooded paddy test), 13 to 15 days
Outline: as §2

[9] = system: barnyardgrass (Echinochloa crus-galli); assay: Test B flooded paddy test; conditions: for Plant response rating, Flood, Barnyardgrass: 250 g ai/ha, flooded paddy test, visual rating on 0 to 100 scale (0 no effect, 100 complete control) after 13 to 15 days; for Plant response rating, Barnyardgrass: Flood (flooded paddy test), 13 to 15 days
Outline: as §2

[10] = system: nightshade (eastern black nightshade, Solanum ptycanthum); assay: Test B pre-/postemergence plant response; conditions: Preemergence; for Nightshade plant response rating: 125 g ai/ha
Outline: (§3)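 Ratings reflect visual comparison with untreated controls 13 to 15 days after application, from 0 (no effect) to 100 (complete control). Application was preemergence to seeded loam/sand soil or postemergence to 1- to 4-leaf plants, with compound in a non-phytotoxic, surfactant-containing solvent.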

[11] = system: sunflower (common oilseed sunflower, Helianthus annuus); assay: Test B pre-/postemergence plant response; conditions: Preemergence; for Sunflower plant response rating: 125 g ai/ha
Outline: as §3

[12] = system: galium (catchweed bedstraw, Galium aparine); assay: Test B pre-/postemergence plant response; conditions: Preemergence; for Galium plant response rating: 125 g ai/ha
Outline: as §3

[13] = system: ragweed (common ragweed, Ambrosia elatior); assay: Test B pre-/postemergence plant response
Outline: as §3

[14] = system: giant foxtail (Setaria faberii); assay: Test B pre-/postemergence plant response
Outline: as §3

[15] = system: Italian ryegrass (Lolium multiflorum); assay: Test B pre-/postemergence plant response
Outline: as §3

[16] = Postemergence, 31 g ai/ha, scale 0 to 100 (0 no effect, 100 complete control)
[17] = Postemergence, 62 g ai/ha, scale 0 (no effect) to 100 (complete control), 13 to 15 days
[18] = Postemergence, 125 g ai/ha, visual rating after 13 to 15 days, scale 0 (no effect) to 100 (complete control)
[19] = Postemergence, 250 g ai/ha, scale 0 to 100
[20] = 31 g ai/ha, scale of 0 to 100 where 0 is no effect and 100 is complete control
[21] = 62 g ai/ha, scale 0 to 100, 0 is no effect, 100 is complete control
[22] = 125 g ai/ha, scale 0 to 100, 0 is no effect, 100 is complete control
[23] = 31 g ai/ha, scale 0 to 100 (0 no effect, 100 complete control)
[24] = 62 g ai/ha, scale 0 to 100, 0 no effect, 100 complete control
[25] = 250 g ai/ha, Preemergence, 0 to 100 scale
[26] = Preemergence, 31 g ai/ha, scale 0 to 100 (0 no effect, 100 complete control)
[27] = Preemergence, 62 g ai/ha, scale 0 to 100, 0 no effect, 100 complete control
[28] = Preemergence, 125 g ai/ha, 0 to 100 scale
[29] = 31 g ai/ha, postemergence, scale 0 to 100, 0 is no effect, 100 is complete control
[30] = Postemergence, 250 g ai/ha, scale 0 to 100 (0 no effect, 100 complete control)
[31] = 62 g ai/ha, scale of 0 to 100 where 0 is no effect and 100 is complete control

2-(3,5-difluorophenyl)-5-[(2-hydroxy-4-oxobicyclo[3.2.1]oct-2-en-3-yl)carbonyl]-3-(2-methoxyethyl)-4(3H)-pyrimidinone [Compound 243]
Plant response rating, Chickweed [1, 16]: 20
Plant response rating, Chickweed [1, 17]: 85
Plant response rating, Chickweed [1, 18]: 95
Chickweed plant response rating [1, 19]: 98
Plant response rating, Canarygrass [2, 16]: 5
Plant response rating, Canarygrass [2, 17]: 25
Plant response rating, Canarygrass [2, 18]: 50
Canarygrass plant response rating [2, 19]: 60
Plant response rating, Windgrass [3, 16]: 50
Plant response rating, Windgrass [3, 17]: 55
Plant response rating, Windgrass [3, 18]: 60
Windgrass plant response rating [3, 19]: 80
Plant response rating, Barley [4, 16]: 0
Plant response rating, Barley [4, 17]: 0
Plant response rating, Barley ([4]; Postemergence, 125 g ai/ha, scale 0 to 100 (0 no effect, 100 complete control), 13 to 15 days): 20
Barley plant response rating [4, 19]: 35
Plant response rating, Goosegrass [5]: 98
Plant response rating, Flood, Sedge, Umbrella [6]: 75
Plant response rating, Sedge, Umbrella [6, 20]: 0
Plant response rating, Sedge, Umbrella [6, 21]: 30
Plant response rating, Sedge, Umbrella [6, 22]: 70
Plant response rating, Flood, Rice [7]: 0
Plant response rating, Rice [7, 20]: 0
Plant response rating, Rice [7, 21]: 0
Plant response rating, Rice [7, 22]: 0
Plant response rating, Flood, Ducksalad [8]: 75
Plant response rating, Ducksalad [8, 20]: 0
Plant response rating, Ducksalad [8, 21]: 30
Plant response rating, Ducksalad [8, 22]: 60
Plant response rating, Flood, Barnyardgrass [9]: 50
Plant response rating, Barnyardgrass [9, 20]: 0
Plant response rating, Barnyardgrass [9, 21]: 0
Plant response rating, Barnyardgrass [9, 22]: 0
Plant response rating, Nightshade ([10]; 250 g ai/ha, 0 to 100 scale): 100
Plant response rating, Nightshade [10, 23]: 100
Plant response rating, Nightshade [10, 24]: 100
Nightshade plant response rating ([10]; 0 to 100 scale): 100
Plant response rating, Sunflower ([11]; 250 g ai/ha, 0 to 100 scale): 98
Plant response rating, Sunflower [11, 23]: 45
Plant response rating, Sunflower [11, 24]: 85
Sunflower plant response rating ([11]; 0 to 100 scale): 95
Plant response rating, Galium ([12]; 250 g ai/ha, 0 to 100 scale): 95
Plant response rating, Galium [12, 23]: 0
Plant response rating, Galium [12, 24]: 40
Galium plant response rating ([12]; 0 to 100 scale): 60
Plant response rating, Ragweed [13, 25]: 100
Plant response rating, Ragweed [13, 16]: 70
Plant response rating, Ragweed [13, 17]: 75
Plant response rating, Ragweed [13, 18]: 75
Ragweed plant response rating [13, 19]: 100
Plant response rating, Ragweed [13, 26]: 55
Plant response rating, Ragweed [13, 27]: 90
Ragweed plant response rating [13, 28]: 100
Plant response rating, Foxtail, Giant [14, 25]: 98
Plant response rating, Foxtail, Giant [14, 16]: 75
Plant response rating, Foxtail, Giant [14, 17]: 85
Plant response rating, Foxtail, Giant [14, 18]: 95
Foxtail, Giant plant response rating [14, 19]: 100
Plant response rating, Foxtail, Giant [14, 26]: 0
Plant response rating, Foxtail, Giant [14, 27]: 15
Foxtail, Giant plant response rating [14, 28]: 60
Plant response rating, Ryegrass, Italian [15, 25]: 40
Plant response rating, Ryegrass, Italian [15, 16]: 0
Plant response rating, Ryegrass, Italian [15, 17]: 0
Plant response rating, Ryegrass, Italian [15, 18]: 30
Ryegrass, Italian plant response rating [15, 19]: 45
Plant response rating, Ryegrass, Italian [15, 26]: 0
Plant response rating, Ryegrass, Italian [15, 27]: 0
Ryegrass, Italian plant response rating [15, 28]: 0

CCCn1c(-c2ccccc2)ncc(C(=O)C2=C(O)CCCC2=O)c1=O [Compound 50]
Plant response rating, Chickweed [1, 29]: 80
Plant response rating, Chickweed [1, 17]: 80
Plant response rating, Chickweed [1, 18]: 98
Plant response rating, Chickweed [1, 30]: 98
Plant response rating, Canarygrass [2, 29]: 0
Plant response rating, Canarygrass [2, 17]: 0
Plant response rating, Canarygrass [2, 18]: 5
Plant response rating, Canarygrass [2, 30]: 5
Plant response rating, Windgrass [3, 29]: 10
Plant response rating, Windgrass [3, 17]: 50
Plant response rating, Windgrass [3, 18]: 60
Plant response rating, Windgrass [3, 30]: 80
Plant response rating, Barley [4, 29]: 0
Plant response rating, Barley [4, 17]: 0
Plant response rating, Barley [4, 18]: 5
Plant response rating, Barley [4, 30]: 5
Plant response rating, Goosegrass [5]: 98
Plant response rating, Flood, Sedge, Umbrella [6]: 95
Plant response rating, Sedge, Umbrella [6, 20]: 75
Plant response rating, Sedge, Umbrella [6, 31]: 75
Plant response rating, Sedge, Umbrella [6, 22]: 85
Plant response rating, Flood, Rice [7]: 20
Plant response rating, Rice [7, 20]: 0
Plant response rating, Rice [7, 31]: 10
Plant response rating, Rice [7, 22]: 15
Plant response rating, Flood, Ducksalad [8]: 85
Plant response rating, Ducksalad [8, 20]: 70
Plant response rating, Ducksalad [8, 31]: 75
Plant response rating, Ducksalad [8, 22]: 85
Plant response rating, Flood, Barnyardgrass [9]: 60
Plant response rating, Barnyardgrass [9, 20]: 0
Plant response rating, Barnyardgrass [9, 31]: 0
Plant response rating, Barnyardgrass [9, 22]: 35
Plant response rating, Nightshade ([10]; 250 g ai/ha, 0 to 100 scale): 100
Plant response rating, Nightshade [10, 23]: 100
Plant response rating, Nightshade [10, 24]: 100
Nightshade plant response rating ([10]; 0 to 100 scale): 100
Plant response rating, Sunflower ([11]; 250 g ai/ha, 0 to 100 scale): 85
Plant response rating, Sunflower [11, 23]: 55
Sunflower plant response rating ([11]; 0 to 100 scale): 85
Plant response rating, Galium ([12]; 250 g ai/ha, 0 to 100 scale): 98
Plant response rating, Galium [12, 23]: 70
Plant response rating, Galium [12, 24]: 95
Galium plant response rating ([12]; 0 to 100 scale): 95
Plant response rating, Ragweed [13, 29]: 80
Plant response rating, Ragweed [13, 25]: 100
Plant response rating, Ragweed [13, 17]: 90
Plant response rating, Ragweed [13, 18]: 98
Plant response rating, Ragweed [13, 30]: 98
Plant response rating, Ragweed [13, 26]: 75
Ragweed plant response rating [13, 28]: 95
Plant response rating, Foxtail, Giant [14, 29]: 75
Plant response rating, Foxtail, Giant [14, 25]: 90
Plant response rating, Foxtail, Giant [14, 17]: 85
Plant response rating, Foxtail, Giant [14, 18]: 95
Plant response rating, Foxtail, Giant [14, 30]: 95
Plant response rating, Foxtail, Giant [14, 26]: 45
Plant response rating, Foxtail, Giant [14, 27]: 75
Foxtail, Giant plant response rating [14, 28]: 90
Plant response rating, Ryegrass, Italian [15, 29]: 0
Plant response rating, Ryegrass, Italian [15, 25]: 0
Plant response rating, Ryegrass, Italian [15, 17]: 0
Plant response rating, Ryegrass, Italian [15, 18]: 0
Plant response rating, Ryegrass, Italian [15, 30]: 0
Plant response rating, Ryegrass, Italian [15, 26]: 0
Ryegrass, Italian plant response rating [15, 28]: 0
